# Values joined by “and” are separate entries in the source; they are usually repeats but may differ in a detail not shown here. Equal values may be shown once.
# How the values were obtained:
# [1] = tested on: rats with middle cerebral artery occlusion (MCAO); assay: Cylinder test, total movement, MCAO rats (Example 2); format: in vivo, Sprague Dawley rat; conditions: individual animals and Mean (N=15), listed as 4-AP
# Method: Dosing and Treatment: Rats were treated in accordance with the dosing schedule shown in Tables 2A, 2B, 3 and FIG. 2, with each Phase being a two week period of time. A solution of 4-AP was used in this experiment. Dosing was started at 4 weeks after ischemic event. 4-aminopyridine was dissolved in water for injection (WFI, Cellgro) and sterile filtered. […] Vehicle control treatment was WFI delivered at 2 mL/kg by gastric gavage. […] Starting on day 30 after MCAO (Day 30, start of phase 1), the animals received gavage dosing of solutions (2 mL/kg) approximately 12 hours apart, for a total of five doses. The same schedule was repeated with different treatment on Day 44 and Day 58 for phase 2 and 3 of the study, respectively. Animals were not treated during the 10 days between phases (washout period). Treatment groups: Dosing was started 4 weeks after MCAO surgery. During these 4 weeks, weekly behavioral assessments, as defined below, were performed. Two dose levels of 4-AP plus vehicle control were assessed, with treatment starting at 4 weeks after ischemic event. […] Animals were given the first dose and behavioral assessments were performed starting 60 minutes after dosing. Animals then received the second dose that day at the appropriate time and b.i.d (preferably every 12 hours) thereafter for 2 more days (3 total days of dosing, 5 total doses). One hour after the 5th dose, animals were subjected to behavioral assessments as defined below. Following the final behavioral assessment, drug was withdrawn for 10 or 11 days, behavior was re-assessed, and then animals were re-challenged with a cross-over treatment (Phase 2 of Table 2B) as described in Tables 2A, 2B and 3, followed by the same behavioral testing and dosing regimen. This cross-over was repeated one more time as well (Phase 3 of Table 2B) (see FIG. 2). Cylinder Test: Evaluation was performed at Day −1 (pre-operation), Day 7, Day 21, Day 30, Day 32, Day 44, Day 46, Day 58, Day 60. This test assessed limb use asymmetry. Rats were placed in a transparent cylinder (20 cm in diameter and 30 cm in height) for 3-6 minutes. A mirror was placed behind the cylinder to determine forelimb movements when animal was turned away from the camera. […] Simultaneous use of both left and right forelimbs while contacting the wall during a full rear was also scored. A total number of 20 forelimb placings were counted during a trial. Data was expressed in terms of percent use of the non-impaired and or impaired forelimb relative to the total number of limb use observations for wall movements.
# [2] = tested on: rats with middle cerebral artery occlusion (MCAO); assay: Body swing test, MCAO rats, dose escalation study (Example 17); format: in vivo, Sprague Dawley rat; conditions: groups diverged prior to treatment initiation (FIG. 13)
# Method: Body Swing: Evaluated at Day −1 (pre-operation), Day 1, Day 7, Day 14, Day 21, Day 28, Day 30, Day 32, Day 42, Day 44, Day 46, Day 56, Day 58, Day 60. Body swing was evaluated by counting head movements to one side or the other when suspended by tail. For this test, the rat was held approximately one (1) inch from the base of its tail. It was then elevated to an inch above a surface of a table. The rat was held in the vertical axis, defined as no more than 10° to either the left or the right side. A swing was recorded whenever the rat moved its head out of the vertical axis to either side. Before attempting another swing, the rat had to return to the vertical position for the next swing to be counted. Thirty (30) total swings were counted. […] Body swing scores were expressed as a percentage of rightward over total swings. […]
# 4-AP was evaluated for its ability to promote functional sensorimotor improvement following ischemic stroke in rats with stable motor deficits at times remote from their ischemic events. […]
# Body Swing: Evaluated at Day −1 (pre-operation), Day 1, Day 7, Day 14, Day 21, Day 28, Day 35, Day 42, Day 49, Day 56, Day 59, Day 62, Day 65, Day 70. […]
# Statistical Methods: Changes from pre-treatment baseline values (Day 56) were calculated for each behavioral score at each time point assessed after dosing. […]
# [3] = human subjects; Donovan et al., Spinal Cord 2000; cited from earlier work
smiles,measurement,setting,value
Nc1ccncc1 [4-aminopyridine],"Cylinder Test (Total Movement) Group 1, D30","[1]; Group 1, D30, treatment phase 1 (high-dose 4-AP)",0.00 (5×) and 75.00 and 2.00 and 10.00 (2×) and 6.00 and 13.00 and 12.00 and 4.00 and 5.00 (2×)
same,"Cylinder Test (Total Movement) Group 1, D32","[1]; Group 1, D32, treatment phase 1 (high-dose 4-AP)",11.00 and 54.00 and 22.00 and 39.00 and 10.00 and 8.00 and 14.00 and 15.00 and 0.00 (2×) and 38.00 and 2.00 and 1.00 and 6.00 and 23.00
same,"Cylinder Test (Total Movement) Group 1, D44","[1]; Group 1, D44, treatment phase 2 (low-dose 4-AP)",28.00 and 93.00 and 48.00 and 57.00 and 47.00 and 9.00 and 11.00 and 5.00 and 66.00 and 25.00 and 6.00 and 43.00 and 20.00 and 7.00
same,"Cylinder Test (Total Movement) Group 1, D46","[1]; Group 1, D46, treatment phase 2 (low-dose 4-AP)",11.00 and 47.00 and 43.00 and 48.00 and 46.00 and 12.00 and 63.00 and 4.00 and 0.00 (2×) and 13.00 and 2.00 and 6.00 and 39.00 and 24.00
same,Body swing performance,[2],no conclusions can be drawn
same,delay in the peak concentration in cerebrospinal fluid compared to that in the blood,[3],approximately an hour

# From patent US20160067232A1, “METHODS FOR TREATING A STROKE-RELATED SENSORIMOTOR IMPAIRMENT USING AMINOPYRIDINES” (Acorda Therapeutics, Inc., priority 2011, published 2016)
